Activity calls are given as the source filed them.
Legend:
[1] = biological target: T1, Lysine-specific demethylase 4C (Homo sapiens, UniProt Q9H3R0); assay: GASC-1 (JMJD2C) histone demethylase inhibitors, dose response, biochemical, DELFIA europium, cherry-picked samples (AID 488835); format: functional
T1 sequence (Q9H3R0 whole entry): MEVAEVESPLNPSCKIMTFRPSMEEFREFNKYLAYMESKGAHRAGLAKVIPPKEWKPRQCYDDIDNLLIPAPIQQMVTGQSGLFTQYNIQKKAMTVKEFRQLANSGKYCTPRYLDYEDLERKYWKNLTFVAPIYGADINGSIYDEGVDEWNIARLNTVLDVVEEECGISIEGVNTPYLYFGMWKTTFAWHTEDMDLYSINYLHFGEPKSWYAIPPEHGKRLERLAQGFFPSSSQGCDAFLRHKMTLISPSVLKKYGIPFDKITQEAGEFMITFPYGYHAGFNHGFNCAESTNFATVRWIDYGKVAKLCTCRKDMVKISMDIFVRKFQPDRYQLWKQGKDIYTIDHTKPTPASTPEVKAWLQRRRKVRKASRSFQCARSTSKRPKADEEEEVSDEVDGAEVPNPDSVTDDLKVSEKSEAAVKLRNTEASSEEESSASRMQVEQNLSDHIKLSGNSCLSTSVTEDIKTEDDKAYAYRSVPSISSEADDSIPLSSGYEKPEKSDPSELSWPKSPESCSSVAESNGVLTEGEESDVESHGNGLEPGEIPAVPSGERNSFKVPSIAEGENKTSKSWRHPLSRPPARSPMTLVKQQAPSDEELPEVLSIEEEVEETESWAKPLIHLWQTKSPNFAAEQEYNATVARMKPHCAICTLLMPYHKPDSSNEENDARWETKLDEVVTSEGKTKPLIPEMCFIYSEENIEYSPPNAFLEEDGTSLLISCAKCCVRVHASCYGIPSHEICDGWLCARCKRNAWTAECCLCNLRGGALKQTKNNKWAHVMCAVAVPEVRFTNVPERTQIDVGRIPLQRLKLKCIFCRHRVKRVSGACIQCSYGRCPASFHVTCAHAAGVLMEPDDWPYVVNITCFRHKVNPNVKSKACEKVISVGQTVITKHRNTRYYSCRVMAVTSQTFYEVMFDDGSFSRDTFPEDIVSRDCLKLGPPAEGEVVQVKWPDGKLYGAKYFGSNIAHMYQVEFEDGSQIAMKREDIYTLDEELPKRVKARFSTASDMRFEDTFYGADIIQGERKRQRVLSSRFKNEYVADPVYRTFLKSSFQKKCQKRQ

SUMO-activating enzyme = SUMO-activating enzyme (Homo sapiens, UniProt Q9UBT2); assay: SUMOylation inhibitor hit validation, confirmation, SUMOylation inhibitor project, biochemical, AlphaScreen (AID 2018); format: functional
Sequence of SUMO-activating enzyme (Q9UBE0 whole entry): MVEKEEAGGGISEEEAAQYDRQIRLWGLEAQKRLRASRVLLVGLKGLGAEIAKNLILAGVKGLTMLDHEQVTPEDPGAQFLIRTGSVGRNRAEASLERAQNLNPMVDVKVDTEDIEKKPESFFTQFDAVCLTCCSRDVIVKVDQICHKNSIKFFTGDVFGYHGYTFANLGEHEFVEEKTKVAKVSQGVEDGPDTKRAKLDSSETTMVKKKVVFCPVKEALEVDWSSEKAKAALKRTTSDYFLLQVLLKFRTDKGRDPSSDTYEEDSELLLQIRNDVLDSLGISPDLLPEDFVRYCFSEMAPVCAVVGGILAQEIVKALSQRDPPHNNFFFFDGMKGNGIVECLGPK
Sequence of SUMO-activating enzyme (Q9UBT2 whole entry): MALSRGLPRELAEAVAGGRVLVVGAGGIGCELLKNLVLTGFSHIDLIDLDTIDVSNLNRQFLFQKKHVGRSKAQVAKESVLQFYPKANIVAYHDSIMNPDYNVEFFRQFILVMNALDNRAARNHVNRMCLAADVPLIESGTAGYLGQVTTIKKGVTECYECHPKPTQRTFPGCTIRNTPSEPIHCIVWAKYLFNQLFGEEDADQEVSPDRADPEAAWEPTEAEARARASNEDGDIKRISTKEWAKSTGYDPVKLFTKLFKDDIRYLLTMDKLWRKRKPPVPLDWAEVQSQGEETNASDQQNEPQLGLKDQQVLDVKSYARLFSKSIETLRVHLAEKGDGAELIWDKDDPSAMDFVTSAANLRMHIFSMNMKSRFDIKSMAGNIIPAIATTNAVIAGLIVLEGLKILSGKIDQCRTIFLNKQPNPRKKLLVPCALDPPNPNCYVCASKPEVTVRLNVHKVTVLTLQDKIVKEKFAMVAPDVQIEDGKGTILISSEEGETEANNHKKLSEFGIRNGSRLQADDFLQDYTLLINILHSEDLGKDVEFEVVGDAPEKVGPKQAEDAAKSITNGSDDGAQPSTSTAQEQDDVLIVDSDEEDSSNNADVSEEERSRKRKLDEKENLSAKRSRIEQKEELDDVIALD

BJ = assay: cytotoxicity toward BJ-TERT fibroblasts, dose response, cell-based, RAS-independent, luminescence (AID 1933); format: functional; conditions: Homo sapiens
[2] = biological target: Intestinal-type alkaline phosphatase (Homo sapiens, UniProt P09923); assay: human IAP activators, dose response, biochemical, luminescent, uHTS hits, set 2 (AID 488817); format: functional;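 further: potency of activators that raise enzyme activity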
Sequence of Intestinal-type alkaline phosphatase (P09923 whole entry): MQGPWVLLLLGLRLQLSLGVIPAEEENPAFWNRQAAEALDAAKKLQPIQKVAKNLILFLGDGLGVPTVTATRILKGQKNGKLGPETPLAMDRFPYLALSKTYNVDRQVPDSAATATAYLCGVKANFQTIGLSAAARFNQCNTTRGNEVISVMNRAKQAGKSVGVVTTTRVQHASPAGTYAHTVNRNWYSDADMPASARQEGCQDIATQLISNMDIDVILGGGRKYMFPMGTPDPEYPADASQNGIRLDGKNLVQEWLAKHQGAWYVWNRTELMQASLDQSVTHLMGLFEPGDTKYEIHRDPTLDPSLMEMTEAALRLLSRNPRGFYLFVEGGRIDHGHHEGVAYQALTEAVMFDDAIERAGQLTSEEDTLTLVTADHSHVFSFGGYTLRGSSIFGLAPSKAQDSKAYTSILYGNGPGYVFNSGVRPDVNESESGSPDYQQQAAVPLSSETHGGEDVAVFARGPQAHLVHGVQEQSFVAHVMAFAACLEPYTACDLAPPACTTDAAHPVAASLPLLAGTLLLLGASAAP

[3] = biological target: 26S proteasome non-ATPase regulatory subunit 14 (Homo sapiens, UniProt O00487); assay: inhibition of proteasome subunit RPN11 – biochemical, fluorescence polarization, uHTS hits, confirmation (AID 602368); format: functional
Sequence of 26S proteasome non-ATPase regulatory subunit 14 (O00487 whole entry): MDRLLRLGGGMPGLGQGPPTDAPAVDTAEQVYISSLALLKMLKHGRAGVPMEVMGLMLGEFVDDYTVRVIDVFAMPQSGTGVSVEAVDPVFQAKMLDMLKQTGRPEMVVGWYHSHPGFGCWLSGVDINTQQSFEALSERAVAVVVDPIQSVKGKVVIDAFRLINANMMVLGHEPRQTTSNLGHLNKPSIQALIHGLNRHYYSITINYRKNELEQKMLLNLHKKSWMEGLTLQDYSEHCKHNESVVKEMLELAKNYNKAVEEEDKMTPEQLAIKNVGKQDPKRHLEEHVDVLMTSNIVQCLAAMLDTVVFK

[4] = biological target: Tyrosine-protein kinase ABL1 (Homo sapiens, UniProt P00519); format: functional
Focal adhesion kinase 1 = Focal adhesion kinase 1 (Homo sapiens, UniProt Q05397); format: functional;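 further: measured as one member of a kinome panel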
Sequence of Focal adhesion kinase 1 (Q05397 whole entry): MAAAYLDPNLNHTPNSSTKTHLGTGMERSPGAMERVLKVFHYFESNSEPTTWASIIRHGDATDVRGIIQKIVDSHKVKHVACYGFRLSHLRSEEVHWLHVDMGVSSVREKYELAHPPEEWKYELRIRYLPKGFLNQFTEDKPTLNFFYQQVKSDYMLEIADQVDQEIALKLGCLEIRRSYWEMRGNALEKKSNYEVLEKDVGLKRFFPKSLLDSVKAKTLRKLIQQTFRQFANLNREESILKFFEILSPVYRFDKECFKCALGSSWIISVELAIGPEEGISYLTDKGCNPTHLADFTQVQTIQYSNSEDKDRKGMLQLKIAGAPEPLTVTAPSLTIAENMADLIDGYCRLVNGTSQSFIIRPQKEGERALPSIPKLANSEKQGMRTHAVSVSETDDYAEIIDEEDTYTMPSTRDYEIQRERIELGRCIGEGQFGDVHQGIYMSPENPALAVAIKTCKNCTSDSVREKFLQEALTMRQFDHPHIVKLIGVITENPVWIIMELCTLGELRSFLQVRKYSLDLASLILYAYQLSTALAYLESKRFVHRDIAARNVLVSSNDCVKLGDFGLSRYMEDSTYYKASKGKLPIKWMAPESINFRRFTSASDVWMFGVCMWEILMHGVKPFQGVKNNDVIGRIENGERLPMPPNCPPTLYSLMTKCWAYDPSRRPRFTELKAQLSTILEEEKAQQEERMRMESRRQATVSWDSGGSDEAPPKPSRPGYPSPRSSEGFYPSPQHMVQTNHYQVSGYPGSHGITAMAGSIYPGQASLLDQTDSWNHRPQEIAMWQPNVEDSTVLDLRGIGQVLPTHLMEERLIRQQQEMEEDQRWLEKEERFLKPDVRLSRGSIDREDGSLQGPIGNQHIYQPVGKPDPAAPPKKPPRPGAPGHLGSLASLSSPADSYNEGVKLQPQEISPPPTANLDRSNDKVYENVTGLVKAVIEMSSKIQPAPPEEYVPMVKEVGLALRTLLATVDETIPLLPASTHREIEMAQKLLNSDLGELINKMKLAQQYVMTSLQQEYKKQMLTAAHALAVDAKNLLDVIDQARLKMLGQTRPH

[5] = biological target: Platelet-derived growth factor receptor alpha (Homo sapiens, UniProt P16234); assay: Navigating the Kinome. Panel member name: PDGFRA; format: functional
Sequence of Platelet-derived growth factor receptor alpha (P16234 whole entry): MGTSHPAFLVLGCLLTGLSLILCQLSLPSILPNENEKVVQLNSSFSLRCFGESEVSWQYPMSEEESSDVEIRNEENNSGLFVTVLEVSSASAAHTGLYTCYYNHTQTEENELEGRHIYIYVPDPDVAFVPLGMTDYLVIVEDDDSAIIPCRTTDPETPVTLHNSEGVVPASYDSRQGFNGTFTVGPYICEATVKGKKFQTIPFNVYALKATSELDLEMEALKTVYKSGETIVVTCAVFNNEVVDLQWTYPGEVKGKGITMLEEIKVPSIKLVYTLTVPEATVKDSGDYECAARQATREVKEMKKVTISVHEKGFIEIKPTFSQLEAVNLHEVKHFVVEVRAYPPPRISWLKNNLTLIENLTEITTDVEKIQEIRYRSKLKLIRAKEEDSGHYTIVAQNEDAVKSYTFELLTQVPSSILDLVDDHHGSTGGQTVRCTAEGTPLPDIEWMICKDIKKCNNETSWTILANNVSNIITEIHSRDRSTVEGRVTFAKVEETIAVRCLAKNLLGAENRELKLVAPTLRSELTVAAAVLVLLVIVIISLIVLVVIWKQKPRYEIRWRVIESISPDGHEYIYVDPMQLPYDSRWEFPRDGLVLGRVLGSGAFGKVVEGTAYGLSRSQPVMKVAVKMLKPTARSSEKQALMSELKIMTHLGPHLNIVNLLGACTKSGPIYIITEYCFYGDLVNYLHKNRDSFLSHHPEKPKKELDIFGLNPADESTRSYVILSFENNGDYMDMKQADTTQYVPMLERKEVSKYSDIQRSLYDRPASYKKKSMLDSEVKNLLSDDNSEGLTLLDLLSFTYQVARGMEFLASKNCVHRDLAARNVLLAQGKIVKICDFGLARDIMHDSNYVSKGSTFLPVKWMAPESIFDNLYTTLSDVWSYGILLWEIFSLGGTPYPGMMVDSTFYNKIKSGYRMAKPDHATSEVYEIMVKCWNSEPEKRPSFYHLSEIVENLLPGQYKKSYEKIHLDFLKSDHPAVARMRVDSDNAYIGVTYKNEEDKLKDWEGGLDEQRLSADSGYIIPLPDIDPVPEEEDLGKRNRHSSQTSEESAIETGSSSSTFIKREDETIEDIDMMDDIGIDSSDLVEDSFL

[6] = biological target: Serine/threonine-protein kinase 3 (Homo sapiens, UniProt Q13188); format: functional;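 further: measured as one member of a kinome-wide kinase panel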
Sequence of Serine/threonine-protein kinase 3 (Q13188 whole entry): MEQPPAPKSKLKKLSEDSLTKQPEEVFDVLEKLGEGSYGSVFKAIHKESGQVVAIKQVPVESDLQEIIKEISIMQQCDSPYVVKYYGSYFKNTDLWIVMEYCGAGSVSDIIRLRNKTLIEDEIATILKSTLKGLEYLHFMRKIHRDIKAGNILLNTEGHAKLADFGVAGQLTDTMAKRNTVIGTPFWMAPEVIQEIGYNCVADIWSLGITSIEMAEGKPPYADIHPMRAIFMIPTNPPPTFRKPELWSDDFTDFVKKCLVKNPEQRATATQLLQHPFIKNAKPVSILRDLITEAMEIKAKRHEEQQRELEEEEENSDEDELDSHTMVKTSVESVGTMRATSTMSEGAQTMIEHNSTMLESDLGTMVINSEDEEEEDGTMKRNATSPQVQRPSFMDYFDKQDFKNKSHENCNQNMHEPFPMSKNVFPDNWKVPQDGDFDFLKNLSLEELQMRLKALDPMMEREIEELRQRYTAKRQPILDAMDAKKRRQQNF

Hexokinase HKDC1 = biological target: T2, Hexokinase HKDC1 (Homo sapiens, UniProt Q2TB90); assay: HKDC1 hexokinase activators, dose response, biochemical, W721R variant (AID 504730); format: functional
T2 sequence (Q2TB90 whole entry): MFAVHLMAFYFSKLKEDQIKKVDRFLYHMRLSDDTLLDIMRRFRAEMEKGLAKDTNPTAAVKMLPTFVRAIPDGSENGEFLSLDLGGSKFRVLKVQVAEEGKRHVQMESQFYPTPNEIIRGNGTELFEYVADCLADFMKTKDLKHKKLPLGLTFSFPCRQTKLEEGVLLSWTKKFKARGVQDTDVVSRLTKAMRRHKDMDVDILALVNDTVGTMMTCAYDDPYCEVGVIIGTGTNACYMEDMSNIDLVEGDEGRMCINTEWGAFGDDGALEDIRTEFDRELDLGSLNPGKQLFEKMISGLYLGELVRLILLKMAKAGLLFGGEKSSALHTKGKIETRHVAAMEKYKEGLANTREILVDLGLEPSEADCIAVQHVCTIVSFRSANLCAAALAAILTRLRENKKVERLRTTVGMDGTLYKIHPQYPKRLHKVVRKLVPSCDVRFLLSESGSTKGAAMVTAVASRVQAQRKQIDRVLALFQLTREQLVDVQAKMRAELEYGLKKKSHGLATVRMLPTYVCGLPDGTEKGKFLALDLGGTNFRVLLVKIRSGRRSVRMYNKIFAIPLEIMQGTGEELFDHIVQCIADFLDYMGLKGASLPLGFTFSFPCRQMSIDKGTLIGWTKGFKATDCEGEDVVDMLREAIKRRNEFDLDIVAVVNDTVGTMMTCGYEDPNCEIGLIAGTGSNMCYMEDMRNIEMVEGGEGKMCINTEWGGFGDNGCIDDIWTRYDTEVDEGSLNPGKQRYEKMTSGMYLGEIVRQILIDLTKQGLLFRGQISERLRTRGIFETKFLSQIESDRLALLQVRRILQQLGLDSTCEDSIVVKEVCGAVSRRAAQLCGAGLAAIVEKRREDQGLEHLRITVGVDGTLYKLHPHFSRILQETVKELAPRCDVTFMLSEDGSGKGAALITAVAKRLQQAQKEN

HeLa = assay: Cytotoxicity counterscreen assay for transcriptional activators of heat shock protein 70 (Hsp70). [Related pubchem assays: 1203, 1252 ]; format: functional; conditions: Homo sapiens;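 further: cells exposed to compound for 16 hours before readout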
[7] = inhibitors of firefly luciferase expression or activity, dose response, H4 neuroglioma cells, luminescence (AID 1990); format: functional, cell-based
[8] = CEM21 lymphoblast cell cytotoxicity, dose response, cytotoxicity control for viral fusion inhibitor project, CellTiter-Glo luminescence, cherry-picked (AID 652042); format: functional, cell-based;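 further: potency for signal decrease meaning cytotoxicity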

SMILES: O=C(Cc1ccccc1Cl)NC1(O)C(=O)c2ccccc2C1=O
- AC50 [1]: 7.1 µM (active)
- IC50 (SUMO-activating enzyme): 5.64 µM (active)

SMILES: O=C(N/N=C/c1c(O)ccc2ccccc12)c1[nH]ncc1Br
- EC50 (BJ): 24.6 µM (active)
- EC50 [2]: 11.7 µM (active)
- IC50 [3]: 24 µM (active)

SMILES: Nc1c(-c2ccc(NC(=O)Nc3cccc(C(F)(F)F)c3)cc2)cnc2c(-c3ccc4c(c3)OCO4)cnn12
- Ki [4]: 0.2 µM (active)
- Ki (Focal adhesion kinase 1): > 6.31 µM (inactive)

SMILES: O=C(Nc1cc(-c2c[nH]c3ncccc23)cc(Cl)n1)c1ccccc1
- Ki [5]: > 2.51 µM (inactive)
- Ki [6]: > 3.16 µM (inactive)

SMILES: CCN1C(=Cc2sc3ccccc3[n+]2C)C=Cc2cccc(C)c21
- EC50 (Hexokinase HKDC1): > 80 µM (inactive)
- CC50 (HeLa): 1.87 µM (active)
- EC50 [7]: 0.142 µM (active)
- EC50 (cells): < 0.004 µM (active)
- AC50 [8]: 4.69 µM (active)

— ChEMBL document CHEMBL1201862, “PubChem BioAssay data set” (2004)
